Experimental data taken from patent publication US12497359B2, “Acrylamide derivatives” (NRG Therapeutics Ltd, priority 2020, dated 2025).
Values after ≈ are worked out from the molar mass of the structure shown.

How the values were obtained:
mPTP [1] = assay: mPTP activity assay in isolated rat liver mitochondria (Ca2+ retention, Fluo5N, FLIPR); assay type: biochemical; details: isolated rat liver mitochondria; average value from multiple experiments (n ≥ 2)
Method in brief: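 Freshly isolated female Sprague Dawley rat liver mitochondria in pH 7.4 buffer with 10 mM succinate, 1 μM rotenone and 2 μM Fluo5N, preincubated 10 min at RT with compound (30 μM to 1 nM). CaCl2 bolus (75 μM) added; IC50 from 10 min fluorescence, normalised to DMSO and 5 μM cyclosporin A.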

mPTP [2] = assay: mPTP human platelet mitochondria membrane potential flow cytometry assay; assay type: cell-based; details: stimulated human platelets
Procedure: The mPTP cell based assay was performed using a mitochondria membrane potential flow cytometry assay in stimulated human platelets. Simulation of platelets results in the rapid influx of Ca^2+ across the platelet membrane. The Ca^2+ is then sequestered by mitochondria until the threshold for mPTP opening is reached, at which point the pore opens and the mitochondrial membrane potential is dissipated. Changes in mitochondria membrane potential due to mPTP opening can be quantified in live platelets using standard mitochondrial membrane potential dyes e.g. 3,3′-dihexyloxacarbocyanine Iodide; DiOC6 (3), enabling pharmacological characterisation of mPTP inhibitors.
Fresh human blood (20 ml) was collected from consented donors into 3.2% sodium citrate. Platelets were isolated by centrifugation at 200 g for 20 min at room temperature, then the platelet rich plasma layer transferred to a fresh tube. Prostaglandin 12 is added to the platelets at a final concentration of 20 ng/ml. After centrifugation at 640 g for 10 min, the platelet rich pellet was resuspended in 4 ml HEPES assay buffer (137 mM NaCl, 2.7 mM KCl, 11.9 mM NaHCO3, 0.42 mM NaH2PO4, 1 mM MgCl2, 5.5 mM glucose, 0.1% bovine serum albumin, 10 mM HEPES adjusted to pH 7.4) and stored on ice.
Test compounds were prepared from 10 mM stocks in DMSO and serially diluted in assay buffer containing 0.4% DMSO and 25 μl transferred into a 96 well plate. Platelets were loaded with the mitochondrial membrane potential dye DiOC6 (3) (3,3′-dihexyloxacarbocyanine Iodide; Invitrogen) at 200 nM for 30 min, then 50 μl plated into each well of the 96 well plate containing diluted test compound and incubated for 15 min. Control wells included DMSO (0.1% final concentration) only or 5 μM cyclosporin A. Platelets were then stimulation with the addition of assay buffer (25 μl) containing CaCl2, alpha thrombin and Convulxin to achieve a final concentrations of 2 mM, 0.017 U/ml and 0.167 μg/ml respectively and incubated for 14 min. The reaction was stopped by the addition of 25 μl 15 mM EDTA in assay buffer. The mitochondrial membrane potential across the population of platelets in each well was then quantified by flow cytometry using a Guava easyCyte 5 Benchtop Flow Cytometer with 3000 events per well. The percentage of platelets with a depolarised mitochondrial membrane potential was calculated for each well. A pIC50 for each compound was then calculated using a standard four parameter curve fit model (GraphPad Prism).

PBS solubility = assay type: physicochemical; details: aqueous buffer, kinetic from dmso stock; PBS pH 7.4, 2 hr at 25° C.
Method in brief: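 Compound from 10 mM DMSO stock was added in duplicate to FaSSIF or PBS (pH 7.4) and shaken at 1100 rpm for 2 hr at 25 °C. After filtration, the filtrate was quantified by LC-MS/MS with internal standard against a standard of known concentration.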

[3] = Microsomal clearance assay, rat liver microsomes; assay type: in vitro ADME; details: average value from two experiments, read-out: Rat liver microsomes intrinsic clearance (CLint)
Procedure: The microsomal stability of test compounds was evaluated using rat liver microsomes (BioIVT) with and without the cofactors nicotinamide adenine dinucleotide phosphate (NADPH) and uridine-diphosphate-glucuronic acid (UDPGA). Reactions were performed in a final volume of 250 μl pre-warmed (37° C.) 100 mM phosphate buffer containing 5 mM MgCl2, 0.025 mg/ml alamethicin, and 0.5 mg/ml rat liver microsomes. NADPH and UDPGA were included at 1 mM and 2 mM respectively, where appropriate. Reactions were started with the addition of 1 μM (final concentration) test compound. Verapamil was used as the positive control. Solutions were incubated in a water bath at 37° C. and aliquots collected at 0.5, 5, 15, 30 and 60 min. Reactions were stopped by the addition of 5 volumes of cold acetonitrile with internal standards (200 nM caffeine and 100 nM tolbutamide). Samples were centrifuged at 3220 g for 40 min. An aliquot of supernatant was diluted 1:1 In ultra-pure H20, then used for LC-MS/MS analysis. Peak areas were determined from extracted ion chromatograms. The slope value, k, was determined by linear regression of the natural logarithm of the remaining percentage of the parent drug vs. incubation time curve. The in vitro half-life (in vitro t1/2) was determined from the slope value: in vitro t1/2=0.693/k. Conversion of the in vitro t1/2 (min) into the in vitro intrinsic clearance (in vitro CLint, in μL/min/mg protein) was done using the following equation (mean of duplicate determinations): in vitro Clint=(0.693/t1/2)*(Vol of incubation (μl)/amount of protein (mg)).

mPTP [4] = assay: mPTP activity assay in isolated rat brain mitochondria; assay type: biochemical; details: isolated rat brain mitochondria
Procedure: MPTP activity was measured in brain mitochondria freshly isolated from female Sprague Dawley (250 to 300 gram) rats. Anaesthetised rats were perfused in-situ with ˜40 ml cold Dulbecco's Phosphate Buffered Saline (DPBS), then brains dissected and transferred into 30 ml Isolation Buffer (225 mM mannitol, 75 mM sucrose, 1 mM EGTA, adjusted to pH 7.4 with 1 M NaOH). The brain was minced using tweezers and a scalpel into ˜5 mm pieces then transferred into a 50 ml Potterton Dounce homogenization tube on ice containing 10 ml ice-cold isolation buffer (as above with addition of Complete Protease inhibitor; 1 tablet per 50 ml buffer). Homogenisation was carried out using a teflon pestle at 1800 rpm. The slurry was centrifuged at 2000 g for 10 min at 4° C., then the supernatant centrifuged at 12,000 g for 9 min. The pellet was resuspended with a dounce homogeniser in isolation buffer as above but with the addition of 0.02% digitonin, centrifuged at 12,000 g for 11 min and finally resuspended in 5 ml modified isolation buffer (as above but with EGTA reduced to 0.1 mM).
Test compounds were prepared in 384 well polypropylene assay plates as described above for the liver mitochondria assay. A stock mitochondria/Fluo5N assay solution was prepared in 5.6 ml assay buffer (120 mM mannitol, 40 mM MOPS, 5 mM KH2PO4, 60 mM KCl, 10 mM pyruvate, 2 mM malate, 2 mM MgCl2, 20 μM ADP, 1.26 μM oligomycin A, adjusted to pH 7.4) supplemented with Fluo5N pentapotassium salt (2 μM) and 1 ml mitochondria suspension, then transferred (15 μl) into the assay plate containing test compounds and incubated for 10 min at RT. Assay plates were then transferred to a FLIPR Tetra plate reader (Molecular Devices). Dye fluorescence was then measured every 3 sec for a total of 10 min. After 12 sec, a 2.5 μl bolus of Ca2+(75 μM) was added from a source plate containing 675 μM CaCl2 in FLIPR assay buffer. IC50 values for test compounds were calculated using the fluorescence value collected at the 10 min timepoint with % inhibition calculated using the DMSO control and cyclosporin A values at […].

Compound | mPTP Rat liver pIC50* (mPTP [1]) | mPTP Human platelets pIC50 (mPTP [2]) | solubility at 2 h (PBS solubility) [µM] | microsomal CLint at 1 µM [3] [µL/min/mg] | mPTP Rat brain pIC50 (mPTP [4])
O=C(/C=C/c1ccc2cn[nH]c2c1)NC1CCc2ccc(F)cc21 (stereo not shown) [Example 6, (E)-N-(6-fluoro-2,3-dihydro-1H-inden-1-yl)-3-(1H-indazol-6-yl)acrylamide] | 6.0 | 4.9 | 9.1 (≈ 2.92 µg/mL) | 59 | 
Cc1c(F)cccc1NC(=O)/C=C/c1ccc2cn[nH]c2c1 [Comparative Example 1, (E)-N-(2-methyl-3-fluorophenyl)-3-(1H-indazol-6-yl)acrylamide, reference compound] | 8.0 | 6.9 |  |  | 7.6
